# Primed or numbered codes have the meaning given here. Where no end group is shown, it is not given here. [ ]: non-standard residue; d: D form. mp4″ = 4 mini PEG linker (mini-PEG spacer)
# How the values were obtained:
# [1] = test system: Swiss Webster fracture-bearing mice (fracture callus); assay: micro CT of the fracture callus in the femur fracture model; format: in vivo
# [2] = test system: Swiss Webster fracture-bearing mice (healed femur); assay: postmortem 4 point bend of the healed femur; format: in vivo
# Description: All in vivo data included herein are from Swiss Webster mice. All mice received an osteotomy on their right femur and received subcutaneous drug administration daily for either 2,3 or 4 weeks, or 17 days, as indicated, for each compound. 1× concentration represents 1 nmol/day, 10× represents 10 nmol/day, 100× represents 100 nmol/day most studies have an n of 5.
# The term “Peak Load” means a postmortem 4 point bend of the healed femur. Peak load represents the maximum force the healed femur withstood before it refractured.
# The targeted conjugates were synthesized using standard Fmoc solid-phase peptide synthesis, as described above. To ensure the conjugates' activity, mouse pre-osteoblast ([…]) cells were treated with the targeted and untargeted compounds for three days at concentrations from 1 pM to 100 nM. After three days of treatment, the cells were harvested, and the RNA was purified from the cells. Expression levels of ALP, RUNx2 (transcription factor for osteoblast differentiation), osterix (OSX), osteopontin (OPN), collagen 1A (Col-1A), OPG, RANKL, sclerostin gene (SOST), and OC were quantified via quantitative reverse transcription polymerase chain reaction (RT-qPCR). Once the biological activity of the conjugates was confirmed, they were tested in vivo in a fracture model. Aseptic surgical techniques were used to place a 23-gage needle as in intramedullary nail in the femur of anesthetized, 12-week-old Swiss Webster mice for internal fixation before fracture. Femur fractures were induced using a drop weight fracture device from RISystem. The mice received buprenorphine for three days post fracture. The mice were dosed subcutaneously each day for three weeks or 17 days. Fracture healing was assessed using microCT (Scanco Medical Ag). Morphometric parameters were quantified in the 100 widest slices of the fracture callus. Trabecular thickness (Tb.Th.), trabecular spacing (Tb.Sp.), total volume (TV), and volume of calcified callus (BV) were calculated. Fractured femurs were tested for strength in a four-point bend to failure using an Electro Force TestBench (TA Instruments). Lower supports were 10 mm apart on the anterior face of the femur in contact with the proximal and distal diaphysis. Upper supports were 4 mm apart and spanned the entire fracture callus on the diaphysis. Force was applied from the posterior face of the femur with a displacement rate of 0.3 mm/sec. Peak load, yield load, stiffness, displacement post yield, work to fracture, and deformation data were generated. Statistical analysis was performed using a two-way analysis of variance (ANOVA) and a Tukey post-hoc analysis with significance reported at the 95% confidence level. All animal experiments were performed in accordance with protocols approved by Purdue University's Institutional Animal Care and Use Committee (IACUC).
# [3] = 17 days, 0.1, 1 and 10 nmol daily s.c., n=5
substance,measurement,setting,value
"SPARC113_mp4_(D)E10: SEQ ID NO: 30, SPARC residues 113-127 conjugated via 4 minipegs with 10 glutamic acids (H[dE][dE][dE][dE][dE][dE][dE][dE][dE][dE][mp4″]TLEGTKKGHKLHLDY)",BV (bone volume),[1]; [3],raises bone mineralization
same,BV/TV,[1]; [3],raises bone density
same,Max load (peak load),[2]; [3],raises bone strength
same,Work to fracture,[2]; [3],raises bone strength
"substance P D10: SEQ ID NO: 4, substance P with 4 mini PEG linker and conjugated with 10 aspartate acids (DDDDDDDDDDRPKPQQFFGLM; 4 mini PEG linker; substance P 4 mini PEG D10 with; (10)..(11) 4 mini PEG linker)",BV/TV,"[1]; 4 weeks, 1, 10 and 100 nmol/day",dose dependent manner
same,Peak load (max load) of healed femur,"[2]; 4 weeks, printed dose 0×",30-35 Newtons

# Reference: patent US20210213135A1 (Purdue Research Foundation, priority 2018, published 2021)
